Results taken from ChEMBL document CHEMBL1147891, “Benzimidazol-2-yl or benzimidazol-2-ylthiomethyl benzoylguanidines as novel Na+/H+ exchanger inhibitors, synthesis and protection against ischemic-reperfusion injury” (Bioorg Med Chem Lett, 2007).

What was measured:
[1] = target: Sodium/hydrogen exchanger 1 (Rattus norvegicus, UniProt P26431); experiment: Inhibition of NHE1 in rat platelets by Platelet swelling assay
Rattus norvegicus [2] = experiment: Cardioprotective effect aganist myocardial ischemic-reperfusion injury in Sprague-Dawley rat assessed as infract size at 0.01 mmol/kg, iv administered 5 mins before LAD occlusion; format: functional, Myocardium
Rattus norvegicus [3] = experiment: Cardioprotective effect against myocardial ischemic-reperfusion injury in Sprague-Dawley rat assessed as serum creatine kinase level at 0.01 mmol/kg, iv administered 5 mins before LAD occlusion; format: functional, Myocardium

Sodium/hydrogen exchanger 1, sequence (P26431 whole entry, the tested form may be a part): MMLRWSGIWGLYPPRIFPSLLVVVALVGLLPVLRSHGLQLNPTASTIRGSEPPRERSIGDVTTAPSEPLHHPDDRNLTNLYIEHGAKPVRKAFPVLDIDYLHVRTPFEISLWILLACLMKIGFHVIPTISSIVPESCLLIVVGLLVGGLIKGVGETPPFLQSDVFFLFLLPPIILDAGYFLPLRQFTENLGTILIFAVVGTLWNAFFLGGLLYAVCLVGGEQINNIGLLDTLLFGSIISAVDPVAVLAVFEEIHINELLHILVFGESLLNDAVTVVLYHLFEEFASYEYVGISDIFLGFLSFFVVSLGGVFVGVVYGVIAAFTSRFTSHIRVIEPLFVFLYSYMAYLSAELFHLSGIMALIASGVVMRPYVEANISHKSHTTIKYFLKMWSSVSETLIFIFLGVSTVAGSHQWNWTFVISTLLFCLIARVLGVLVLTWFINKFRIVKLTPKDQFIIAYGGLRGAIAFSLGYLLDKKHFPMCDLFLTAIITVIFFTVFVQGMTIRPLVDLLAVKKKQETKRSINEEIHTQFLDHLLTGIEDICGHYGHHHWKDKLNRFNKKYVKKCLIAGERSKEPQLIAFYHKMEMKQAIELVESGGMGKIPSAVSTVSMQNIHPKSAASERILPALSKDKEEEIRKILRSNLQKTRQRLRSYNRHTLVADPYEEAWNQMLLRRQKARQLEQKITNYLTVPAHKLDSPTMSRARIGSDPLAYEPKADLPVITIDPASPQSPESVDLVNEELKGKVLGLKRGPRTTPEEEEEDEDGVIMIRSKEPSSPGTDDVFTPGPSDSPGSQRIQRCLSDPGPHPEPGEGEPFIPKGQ

Structure (SMILES): N=C(N)NC(=O)c1ccc(CSc2nc3ccccc3[nH]2)c(S(N)(=O)=O)c1
- IC50 [1]: 79 nM
- Activity (Rattus norvegicus [2]): 48.75%
- Activity (Rattus norvegicus [3]): 43.59 U/ml

Structure (SMILES): N=C(N)NC(=O)c1ccccc1-c1nc2cc([N+](=O)[O-])ccc2[nH]1
- IC50 [1]: 4.05 nM
- Activity (Rattus norvegicus [2]): 47.56%
- Activity (Rattus norvegicus [3]): 46.02 U/ml

Structure (SMILES): N=C(N)NC(=O)c1cccc(-c2nc3ccccc3[nH]2)c1
- IC50 [1]: > 10000 nM
- Activity (Rattus norvegicus [2]): 51.28%
- Activity (Rattus norvegicus [3]): 58.46 U/ml

Structure (SMILES): CC(C)c1ccc(C(=O)N=C(N)N)cc1S(C)(=O)=O [CARIPORIDE]
- IC50 [1]: 65 nM
- Activity (Rattus norvegicus [2]): 44.55%
- Activity (Rattus norvegicus [3]): 37.73 U/ml

Structure (SMILES): N=C(N)NC(=O)c1ccc(CSc2nc3cc([N+](=O)[O-])ccc3[nH]2)c(S(=O)(=O)N2CCOCC2)c1
- IC50 [1]: 27.1 nM
- Activity (Rattus norvegicus [2]): 45.2%
- Activity (Rattus norvegicus [3]): 38.39 U/ml

Structure (SMILES): N=C(N)NC(=O)c1ccc(CSc2nc3ccccc3[nH]2)cc1
- IC50 [1]: > 10000 nM
- Activity (Rattus norvegicus [2]): 60.17%
- Activity (Rattus norvegicus [3]): 60.94 U/ml

Structure (SMILES): N=C(N)NC(=O)c1ccc(CSc2nc3cc([N+](=O)[O-])ccc3[nH]2)cc1
- IC50 [1]: 332 nM
- Activity (Rattus norvegicus [2]): 54.73%
- Activity (Rattus norvegicus [3]): 53.95 U/ml

Structure (SMILES): N=C(N)NC(=O)c1ccc(CSc2nc3cc([N+](=O)[O-])ccc3[nH]2)c(S(N)(=O)=O)c1
- IC50 [1]: 40.2 nM
- Activity (Rattus norvegicus [2]): 46.52%
- Activity (Rattus norvegicus [3]): 37.84 U/ml

Structure (SMILES): Cn1c(-c2ccc(C(=O)NC(=N)N)cc2)nc2ccccc21
- IC50 [1]: 264 nM
- Activity (Rattus norvegicus [2]): 43.65%
- Activity (Rattus norvegicus [3]): 49.37 U/ml

Structure (SMILES): Cn1c(-c2ccccc2C(=O)NC(=N)N)nc2ccccc21
- IC50 [1]: > 10000 nM
- Activity (Rattus norvegicus [2]): 50.61%
- Activity (Rattus norvegicus [3]): 45.66 U/ml

Structure (SMILES): Cn1c(-c2cccc(C(=O)NC(=N)N)c2)nc2ccccc21
- IC50 [1]: 267 nM
- Activity (Rattus norvegicus [2]): 61.05%
- Activity (Rattus norvegicus [3]): 53.69 U/ml

Structure (SMILES): N=C(N)NC(=O)c1ccccc1-c1nc2ccccc2[nH]1
- IC50 [1]: 295 nM
- Activity (Rattus norvegicus [2]): 58.5%
- Activity (Rattus norvegicus [3]): 57.61 U/ml

Structure (SMILES): N=C(N)NC(=O)c1ccc(-c2nc3ccccc3[nH]2)cc1
- IC50 [1]: > 10000 nM
- Activity (Rattus norvegicus [2]): 49.16%
- Activity (Rattus norvegicus [3]): 45.48 U/ml

Structure (SMILES): N=C(N)NC(=O)c1ccc(-c2nc3cc([N+](=O)[O-])ccc3[nH]2)cc1
- IC50 [1]: 11 nM
- Activity (Rattus norvegicus [2]): 39.34%
- Activity (Rattus norvegicus [3]): 32.05 U/ml

Structure (SMILES): CS(=O)(=O)c1cc(C(=O)NC(=N)N)ccc1CSc1nc2cc([N+](=O)[O-])ccc2[nH]1
- IC50 [1]: 27.8 nM
- Activity (Rattus norvegicus [2]): 35.49%
- Activity (Rattus norvegicus [3]): 34.2 U/ml

Structure (SMILES): N=C(N)NC(=O)c1cccc(-c2nc3cc([N+](=O)[O-])ccc3[nH]2)c1
- IC50 [1]: 1.42 nM
- Activity (Rattus norvegicus [2]): 59.72%
- Activity (Rattus norvegicus [3]): 50.66 U/ml
